Experimental data: US20180355369A1, “Method for Increasing Plant Stress Tolerance and Seed Dormancy” (The Australian National University, priority 2015, published 2018)
Entries after “also recorded” stand apart in the source; their conditions may differ.

Assays:
seeds = test: Seed germination assay; assay type: in vivo, Arabidopsis
Procedure: Seeds used for germination assays were 3-months-old and all from seed stocks produced and harvested from plants grown under identical conditions at the same time. Seeds were sterilized and grown on 0.8% (w/v) agar plates containing Murashige-Skoog (MS) nutrients and 2% (w/v) sucrose. Different combinations of 0, 1 μM ABA, 0, 0.5 μM paclobutrazol and/or 0, 100, 500 and 1000 μM PAP were supplemented into the media using the infiltration buffer. At least 70-100 seeds from each genotype were plated on the same plate for efficient comparison. The seeds were stratified at 4° C. in the dark for 48 h before transfer to a growth cabinet and grown at 22° C. under 24-h light (100 μmol photons m^−2 s^−1) unless stated otherwise. The germination was scored after 3 days as the emergence of the radicle through the seed coat and the germination rate was calculated as the percentage of the total number of seeds per treatment with five replicates for each treatment. The experiment was repeated twice and statistical analyses are described below.

stomata [1] = test: Stomatal aperture in barley leaf epidermal peels; assay type: cell-based; conditions: exogenous PAP 100 μM
Procedure: Measurements of stomatal closure in response to ABA, PAP, cordycepin and ATP treatments were performed on epidermal strips from Arabidopsis and barley plants grown under specific conditions. Plants were grown under high humidity (approximately 80% RH) and 12 h/12 h and 22/20° C. light/dark cycle in a growth chamber. Epidermal peels of newly expanding true leaves of three to four-week old plants. Stomatal apertures were measured in epidermal peels of newly expanded leaves. Peels were taken from the abaxial leaf surface and were fixed to the glass bottom of the experimental chamber after coating the chamber surface with an optically clear and pressure-sensitive silicon adhesive (Factor II, Tucson, USA). The attached epidermal peel is subsequently immersed in an opening buffer (OB: 50 mM KCl, 5 mM MES titrated to pH 6.1 with NaOH) and incubated, at plant growth conditions, for approximately 2 h. […] Stomata aperture width and length were measured using Image J (NIH, USA). The pore area of each stomate was calculated using these values under the assumption that the area of a stomatal pore was that of an ellipse. Data are expressed as percentage over the control.

[2] = PAP accumulation in leaves after petiole feeding; assay type: in vivo, Arabidopsis; conditions: petiole feeding of PAP for 1 h, alone or co-applied with LiCl or ATP
Procedure: (§1) Five- to six-week-old plants were used to prepare epidermal peels. ABA at a concentration of 20 μM in water was root fed to hydroponically grown plants or sprayed onto leaves using a Studio Series IS-875 with a 0.5 mm nozzle opening (Iwata). We investigated if PAP accumulation in the double mutants could affect the production of NO during ABA-induced stomatal closure by treating epidermal peels with the inhibitor of NO synthase N(G)-methyl-L-arginine (NMA). For the investigation of the effect of different chemicals on stomatal closure, 20 μM ABA (Sigma-Aldrich), 100 mM LiCl, or 1 mM ATP, 1 mM or 100 μM PAP (Sigma-Aldrich) alone or in different combinations were prepared in infiltration buffer (1 mM PIPES KOH pH 6.0, 1 mM Sodium citrate, 1 mM KCl, 15 mM Sucrose) modified from a cordycepin infiltration buffer.
Total adenosines were extracted with 0.1 M HCl, derivatization with chloroacetaldehyde and quantified fluorometrically after HPLC fractionation. 3′-phosphoadenosine 5′-phosphate (PAP) quantification was performed by integrating the HPLC peak area and converting these to pmol units using standard curves of 1, 5 and 10 pmol standard.

stomata [3] = test: Stomatal aperture in epidermal leaf peels; assay type: cell-based, Arabidopsis
Procedure: as §1
Measurements of stomatal aperture were performed with epidermal strips taken from five- to six-week-old plants. Fully developed leaves were cut and placed with their adaxial side onto cello tape. The vein was removed by razor blade and the abaxial epidermis was subsequently peeled off by using another strip of cello tape. To promote stomatal opening, the peels left adhered to the Scotch (810D Magic Tape, ¾ inch, 3M) were placed in petri dishes filled with stomatal opening solution (10 mM MES, 5 mM KCl, 50 μM CaCl2, pH 6.5) and incubated for 2 h at 22° C. under 150-200 μmol photons m^−2 s^−1 of light. Once the stomata were fully open, strips were maintained in the opening buffer or treated with various compounds according to the experiment. After treatment, photographs of stomata were taken using Leica microscope (Leica Microsystems, Wetzlar, Germany) at 20×. Stomatal aperture was measured using the image-processing software ImageJ. For stomatal aperture measurements, the ratio of stomatal pore width and length was used instead of width as this normalizes the pores of stomata of different size. Small stomata with a stomatal pore length of less than 7.5 μm were discarded. For each data point, 90 stomata were measured in 3 independent experiments. In each experiment, 10 stomata were measured in 3 epidermal strips per sample per treatment.
Measurements of stomatal closure in response to ABA, PAP, cordycepin and ATP treatments were performed on epidermal strips from Arabidopsis and barley plants grown under specific conditions. Plants were grown under high humidity (approximately 80% RH) and 12 h/12 h and 22/20° C. light/dark cycle in a growth chamber. Epidermal peels of newly expanding true leaves of three to four-week old plants. Stomatal apertures were measured in epidermal peels of newly expanded leaves. Peels were taken from the abaxial leaf surface and were fixed to the glass bottom of the experimental chamber after coating the chamber surface with an optically clear and pressure-sensitive silicon adhesive (Factor II, Tucson, USA). The attached epidermal peel is subsequently immersed in an opening buffer (OB: 50 mM KCl, 5 mM MES titrated to pH 6.1 with NaOH) and incubated, at plant growth conditions, for approximately 2 h. Stomatal images were taken using a bright-field microscope capable of 400× magnification for 10 minutes in OB and subsequently in Measuring Buffer [MB: 10 mM KCl, 5 mM MES titrated to pH 6.1 with Ca(OH)2] or PAP or cordycepin or ABA (dissolved in MB) for another 50 min. In total this was a 60 minute time course and images of the epidermal section were taken every 5 minutes using NIS Elements software (Nikon, Japan). Stomata aperture width and length were measured using Image J (NIH, USA). The pore area of each stomate was calculated using these values under the assumption that the area of a stomatal pore was that of an ellipse. Data are expressed as percentage over the control.

guard cells [4] = test: Ion fluxes (K+, Cl- and Ca2+) in guard cells; assay type: cell-based, Arabidopsis; conditions: wild type, ost1-2, alx8 and ost1-2 alx8
guard cells [5] = test: ROS accumulation in guard cells of epidermal peels; assay type: cell-based, Arabidopsis; conditions: wild type, ost1-2 and ost1-2 alx8
Procedure: The ABA- and PAP-induced accumulation of ROS in guard cells of epidermal peels was measured using dichlorofluorescein diacetate (H2DCFDA, Invitrogen). After 2 h of incubation in OB, the epidermal peel was incubated with 20 μM dye dissolved in DMSO and MB for 30 min, and then rinsed with MB three times. Epidermal peels were incubated in ABA or PAP dissolved in MB (or MB only as a negative control) for 10 min. Fluorescence images were taken using a Leica inverted confocal microscope controlled by the LAS AF software (Leica Microsystems, Germany). We used the 496-nm excitation line of an argon multiline laser. H2DCFDA fluorescence emission was detected at 505 to 525 nm. Chloroplast fluorescence was detected at 680 to 700 nm in order to separate the autofluorescence of chlorophyll in guard cells. Images were quantified with Image J software (National Institutes of Health, USA). The background signal was measured from the empty region of the similar size and subtracted from the stomata signal to obtain corrected total stomatal fluorescence values. Each stomate was considered to represent a single biological unit and thus fluorescence values were averaged across all stomata at each time point for each treatment. At least three biological replicates were measured for each treatment.

For `Nc1ncnc2c1ncn2[C@@H]1O[C@H](COP(=O)(O)O)[C@@H](OP(=O)(O)O)[C@H]1O` [PAP, 3′-phosphoadenosine 5′-phosphate], the “ABA responsiveness of germination in abi1-1” value (seeds; abi1-1 seeds, addition of PAP alone) was “restored ABA responsiveness in abi1-1”, the “seed germination / dormancy” value (seeds; wild type seeds, exogenous PAP in conjunction with exogenous ABA (1 μM) or lower GA) was “extended the dormancy of seeds; also recorded: repress germination in wild type seeds in a dose-dependent manner” and the “stomatal conductance in barley” value (stomata [1]) was “regulates stomatal conductance in barley”. For the same compound, the “accumulation of PAP in leaves” value [2] was “results in accumulation of PAP in leaves”, the “magnitude and rate of ABA-mediated stomatal closure with added PAP” value (stomata [3]; PAP together with ABA) was “further enhanced” and the “stomatal closure in leaf peels” value (stomata [3]; leaf peels of wild type plants, 1 hr, PAP 100 μM, ABA 100 μM, cordycepin 10 μM) was “elicited rapid stomatal closure similar to the ABA response; also recorded: nearly identical to that of ABA”. For the same compound, the ion fluxes (guard cells [4]) was “mediated similar rapid changes in ion fluxes in all genotypes” and the “ROS burst in guard cells” value (guard cells [5]) was “phenocopying of the timing and extent of the ABA-induced ROS burst”.
